Results reported in ChEMBL document CHEMBL4138123, “Design, synthesis and biological evaluation of novel pyrazolochalcones as potential modulators of PI3K/Akt/mTOR pathway and inducers of apoptosis in breast cancer cells” (Eur J Med Chem, 2017).

Columns and labels:
Format in all cases: functional
[1] = test system: SNB-19; experiment: Cytotoxicity against human SNB19 cells assessed as cell growth at 0.1 uM after 48 hrs by sulforhodamine B assay relative to control; conditions: SNB-19, 48 h, read-out: Activity
[2] = test system: NCI-H322M; experiment: Cytotoxicity against human NCI-H322M cells assessed as cell growth at 10 uM after 48 hrs by sulforhodamine B assay relative to control; conditions: read-out: Activity
[3] = test system: Malme-3M; experiment: Cytotoxicity against human MALME-3M cells assessed as cell growth at 10 uM after 48 hrs by sulforhodamine B assay relative to control; conditions: read-out: Activity
[4] = test system: NCI-H322M; experiment: Cytotoxicity against human NCI-H322M cells assessed as cell growth at 100 uM after 48 hrs by sulforhodamine B assay relative to control; conditions: read-out: Activity
[5] = test system: Malme-3M; experiment: Cytotoxicity against human MALME-3M cells assessed as cell growth at 0.01 uM after 48 hrs by sulforhodamine B assay relative to control; conditions: read-out: Activity
[6] = test system: RXF 393; experiment: Cytotoxicity against human RXF393 cells assessed as growth inhibition after 48 hrs by sulforhodamine B assay; conditions: RXF 393, 48 h
[7] = test system: CCRF-CEM; experiment: Cytotoxicity against human CCRF-CEM cells assessed as cell growth at 0.01 uM after 48 hrs by sulforhodamine B assay relative to control; conditions: read-out: Activity
[8] = test system: RXF 393; experiment: Cytotoxicity against human RXF393 cells assessed as cell growth at 100 uM after 48 hrs by sulforhodamine B assay relative to control; conditions: RXF 393, 48 h, read-out: Activity
[9] = test system: BT-549; experiment: Cytotoxicity against human BT549 cells assessed as growth inhibition after 48 hrs by sulforhodamine B assay; conditions: BT-549, 48 h
[10] = test system: HOP-62; experiment: Cytotoxicity against human HOP62 cells assessed as cell growth at 100 uM after 48 hrs by sulforhodamine B assay relative to control; conditions: HOP-62, 48 h, read-out: Activity
[11] = test system: RXF 393; experiment: Cytotoxicity against human RXF393 cells assessed as cell growth at 0.1 uM after 48 hrs by sulforhodamine B assay relative to control; conditions: RXF 393, 48 h, read-out: Activity
[12] = test system: OVCAR-3; experiment: Cytotoxicity against human OVCAR3 cells assessed as cell growth at 100 uM after 48 hrs by sulforhodamine B assay relative to control; conditions: OVCAR-3, 48 h, read-out: Activity
[13] = test system: MDA-MB-231; experiment: Cytotoxicity against human MDA-MB-231 cells assessed as growth inhibition after 48 hrs by sulforhodamine B assay; conditions: MDA-MB-231, 48 h
[14] = test system: CCRF-CEM; experiment: Cytotoxicity against human CCRF-CEM cells assessed as cell growth at 0.1 uM after 48 hrs by sulforhodamine B assay relative to control; conditions: read-out: Activity
[15] = test system: SNB-19; experiment: Cytotoxicity against human SNB19 cells assessed as cell growth at 10 uM after 48 hrs by sulforhodamine B assay relative to control; conditions: SNB-19, 48 h, read-out: Activity
[16] = test system: IGROV-1; experiment: Cytotoxicity against human IGROV1 cells assessed as cell growth at 0.01 uM after 48 hrs by sulforhodamine B assay relative to control; conditions: IGROV-1, 48 h, read-out: Activity
[17] = test system: HCT-116; experiment: Cytotoxicity against human HCT116 cells assessed as cell growth at 0.1 uM after 48 hrs by sulforhodamine B assay relative to control; conditions: HCT-116, 48 h, read-out: Activity
[18] = test system: UACC-257; experiment: Cytotoxicity against human UACC257 cells assessed as cell growth at 0.1 uM after 48 hrs by sulforhodamine B assay relative to control; conditions: UACC-257, 48 h, read-out: Activity
[19] = test system: TK-10; experiment: Cytotoxicity against human TK10 cells assessed as cell growth at 0.01 uM after 48 hrs by sulforhodamine B assay relative to control; conditions: TK-10, 48 h, read-out: Activity
[20] = test system: CCRF-CEM; experiment: Cytotoxicity against human CCRF-CEM cells assessed as growth inhibition after 48 hrs by sulforhodamine B assay
[21] = test system: SF-539; experiment: Cytotoxicity against human SF539 cells assessed as growth inhibition after 48 hrs by sulforhodamine B assay; conditions: SF-539, 48 h
[22] = test system: OVCAR-4; experiment: Cytotoxicity against human OVCAR4 cells assessed as growth inhibition after 48 hrs by sulforhodamine B assay; conditions: OVCAR-4, 48 h
[23] = test system: SF-539; experiment: Cytotoxicity against human SF539 cells assessed as cell growth at 10 uM after 48 hrs by sulforhodamine B assay relative to control; conditions: SF-539, 48 h, read-out: Activity
[24] = test system: SK-MEL-2; experiment: Cytotoxicity against human SK-MEL-2 cells assessed as growth inhibition after 48 hrs by sulforhodamine B assay; conditions: SK-MEL-2, 48 h
[25] = test system: UACC-62; experiment: Cytotoxicity against human UACC62 cells assessed as cell growth at 10 uM after 48 hrs by sulforhodamine B assay relative to control; conditions: UACC-62, 48 h, read-out: Activity
[26] = test system: NCI-H226; experiment: Cytotoxicity against human NCI-H226 cells assessed as growth inhibition after 48 hrs by sulforhodamine B assay; conditions: NCI-H226, 48 h
[27] = test system: UACC-62; experiment: Cytotoxicity against human UACC62 cells assessed as growth inhibition after 48 hrs by sulforhodamine B assay; conditions: UACC-62, 48 h
[28] = test system: HCT-15; experiment: Cytotoxicity against human HCT15 cells assessed as cell growth at 0.1 uM after 48 hrs by sulforhodamine B assay relative to control; conditions: HCT-15, 48 h, read-out: Activity
[29] = test system: SK-MEL-5; experiment: Cytotoxicity against human SK-MEL-5 cells assessed as cell growth at 0.01 uM after 48 hrs by sulforhodamine B assay relative to control; conditions: SK-MEL-5, 48 h, read-out: Activity
[30] = test system: HCT-116; experiment: Cytotoxicity against human HCT116 cells assessed as cell growth at 10 uM after 48 hrs by sulforhodamine B assay relative to control; conditions: HCT-116, 48 h, read-out: Activity
[31] = test system: ACHN; experiment: Cytotoxicity against human ACHN cells assessed as cell growth at 1 uM after 48 hrs by sulforhodamine B assay relative to control; conditions: read-out: Activity
[32] = test system: SK-OV-3; experiment: Cytotoxicity against human SKOV3 cells assessed as cell growth at 0.01 uM after 48 hrs by sulforhodamine B assay relative to control; conditions: SK-OV-3, 48 h, read-out: Activity
[33] = test system: NCI-H522; experiment: Cytotoxicity against human NCI-H522 cells assessed as cell growth at 10 uM after 48 hrs by sulforhodamine B assay relative to control; conditions: NCI-H522, 48 h, read-out: Activity
[34] = test system: ACHN; experiment: Cytotoxicity against human ACHN cells assessed as cell growth at 10 uM after 48 hrs by sulforhodamine B assay relative to control; conditions: read-out: Activity
[35] = test system: NCI-H522; experiment: Cytotoxicity against human NCI-H522 cells assessed as cell growth at 1 uM after 48 hrs by sulforhodamine B assay relative to control; conditions: NCI-H522, 48 h, read-out: Activity
[36] = test system: K562; experiment: Cytotoxicity against human K562 cells assessed as growth inhibition after 48 hrs by sulforhodamine B assay; conditions: K562, 48 h

COc1ccc(C(=O)/C=C/c2cc(-c3ccc4c(c3)OCO4)n[nH]2)cc1OC
growth at 0.1 µM [1]: 89%
growth at 10 µM [2]: -15%
growth at 10 µM [3]: 41%
growth at 100 µM [4]: -90%
growth at 0.01 µM [5]: 93%
LC50 (concentration killing 50% of cells) [6]: 15.9 µM
TGI [6]: 5.39 µM
growth at 0.01 µM [7]: 99%
growth at 100 µM [8]: -95%
GI50 [9]: 1.97 µM
LC50 (concentration killing 50% of cells) [9]: 8.98 µM
TGI [9]: 4.21 µM
growth at 100 µM [10]: -80%
growth at 0.1 µM [11]: 97%
growth at 100 µM [12]: -67%
GI50 [13]: 2.44 µM
LC50 [13]: 31.7 µM
TGI [13]: 7.39 µM
growth at 0.1 µM [14]: 99%
growth at 10 µM [15]: 21%
growth at 0.01 µM [16]: 100%
growth at 0.1 µM [17]: 95%
growth at 0.1 µM [18]: 95%
growth at 0.01 µM [19]: 91%
LC50 (concentration killing 50% of cells) [20]: > 100 µM
TGI [20]: 9.58 µM
LC50 (concentration killing 50% of cells) [21]: 11.9 µM
TGI [21]: 4.47 µM
LC50 [22]: > 100 µM
TGI [22]: 40.3 µM
growth at 10 µM [23]: -47%
LC50 (concentration killing 50% of cells) [24]: 68 µM
TGI [24]: 23.2 µM
growth at 10 µM [25]: 19%
LC50 (concentration killing 50% of cells) [26]: > 100 µM
TGI [26]: 11.2 µM
LC50 [27]: 40.9 µM
TGI [27]: 14.8 µM
growth at 0.1 µM [28]: 95%
growth at 0.01 µM [29]: 96%
growth at 10 µM [30]: -9%
growth at 1 µM [31]: 94%
growth at 0.01 µM [32]: 99%
growth at 10 µM [33]: -45%
growth at 10 µM [34]: 13%
growth at 1 µM [35]: 84%
LC50 (concentration killing 50% of cells) [36]: > 100 µM
TGI [36]: 16.7 µM

COc1cc(-c2cc(/C=C/C(=O)c3ccc(F)c(F)c3)[nH]n2)cc(OC)c1OC
growth at 0.1 µM [1]: 87%
growth at 10 µM [2]: 18%
growth at 10 µM [3]: -3%
growth at 100 µM [4]: 3%
growth at 0.01 µM [5]: 93%
LC50 (concentration killing 50% of cells) [6]: 54.1 µM
TGI [6]: 6.34 µM
growth at 0.01 µM [7]: 99%
growth at 100 µM [8]: -61%
LC50 (concentration killing 50% of cells) [9]: 79.5 µM
TGI [9]: 19.3 µM
growth at 100 µM [10]: 4%
growth at 0.1 µM [11]: 96%
growth at 100 µM [12]: -64%
LC50 [13]: > 100 µM
TGI [13]: 4.58 µM
growth at 0.1 µM [14]: 96%
growth at 10 µM [15]: 25%
growth at 0.01 µM [16]: 97%
growth at 0.1 µM [17]: 102%
growth at 0.1 µM [18]: 92%
growth at 0.01 µM [19]: 82%
LC50 (concentration killing 50% of cells) [20]: > 100 µM
TGI [20]: 47.2 µM
LC50 (concentration killing 50% of cells) [21]: 70 µM
TGI [21]: 17.7 µM
LC50 [22]: > 100 µM
TGI [22]: 71.8 µM
growth at 10 µM [23]: 21%
LC50 (concentration killing 50% of cells) [24]: 41.1 µM
TGI [24]: 5.89 µM
growth at 10 µM [25]: -13%
LC50 (concentration killing 50% of cells) [26]: 66 µM
TGI [26]: 15.8 µM
LC50 [27]: 35.3 µM
TGI [27]: 7.44 µM
growth at 0.1 µM [28]: 95%
growth at 0.01 µM [29]: 98%
growth at 10 µM [30]: 9%
growth at 1 µM [31]: 100%
growth at 0.01 µM [32]: 98%
growth at 10 µM [33]: -38%
growth at 10 µM [34]: 2%
growth at 1 µM [35]: 71%
LC50 (concentration killing 50% of cells) [36]: > 100 µM
TGI [36]: 16.5 µM
